Test results: patent US10405547B2, “Substituted cyclic amides as herbicides” (FMC Corporation, priority 2015, dated 2019)

Assays:
Format in all cases: in vivo
Conditions in all cases: 0 to 100 scale (0 no effect, 100 complete control)
[1] = tested on: barnyardgrass (Echinochloa crus-galli); assay: Test A postemergence, barnyardgrass
Source text: (§1) Test A Seeds of plant species selected from barnyardgrass (Echinochloa crus-galli), kochia (Kochia scoparia), ragweed (common ragweed, Ambrosia elatior), ryegrass, Italian (Lolium multiflorum), foxtail, giant (Setaria faberii), and pigweed (Amaranthus retroflexus), were planted into a blend of loam soil and sand and treated preemergence with a directed soil spray using test chemicals formulated in a non-phytotoxic solvent mixture which included a surfactant.
(§2) At the same time, plants selected from these weed species and also blackgrass (Alopecurus myosuroides), galium (catchweed bedstraw, Galium aparine), wheat (Triticum aestivum), and corn (Zea mays) were planted in pots containing the same blend of loam soil and sand and treated with postemergence applications of test chemicals formulated in the same manner. Plants ranged in height from 2 to 10 cm and were in the one- to two-leaf stage for the postemergence treatment. Treated plants and untreated controls were maintained in a greenhouse for approximately 10 days, after which time all treated plants were compared to untreated controls and visually evaluated for injury. Plant response ratings, summarized in Table A, are based on a 0 to 100 scale where 0 is no effect and 100 is complete control. A dash (-) response means no test result.

[2] = tested on: ryegrass, Italian (Lolium multiflorum); assay: Test A preemergence, Italian ryegrass
Source text: as §1, §2

[3] = tested on: ragweed (common ragweed, Ambrosia elatior); assay: Test A postemergence, ragweed
Source text: as §1, §2

[4] = tested on: blackgrass (Alopecurus myosuroides); assay: Test A postemergence, blackgrass
Source text: as §1, §2

kochia (Kochia scoparia) [5] = assay: Test A postemergence, kochia
Source text: as §1, §2

[6] = tested on: ragweed (common ragweed, Ambrosia elatior); assay: Test A preemergence, ragweed
Source text: as §1, §2

[7] = tested on: ryegrass, Italian (Lolium multiflorum); assay: Test A postemergence, Italian ryegrass
Source text: as §1, §2

[8] = tested on: foxtail, giant (Setaria faberii); assay: Test A postemergence, giant foxtail
Source text: as §1, §2

[9] = tested on: foxtail, giant (Setaria faberii); assay: Test A preemergence, giant foxtail
Source text: as §1, §2

[10] = tested on: pigweed (Amaranthus retroflexus); assay: Test A preemergence, pigweed
Source text: as §1, §2

[11] = tested on: wheat (Triticum aestivum); assay: Test A postemergence, wheat
Source text: as §1, §2

corn (Zea mays) = assay: Test A postemergence, corn
Source text: as §1, §2

[12] = tested on: pigweed (Amaranthus retroflexus); assay: Test A postemergence, pigweed
Source text: as §1, §2

[13] = tested on: barnyardgrass (Echinochloa crus-galli); assay: Test A preemergence, barnyardgrass
Source text: as §1, §2

[14] = tested on: galium (catchweed bedstraw, Galium aparine); assay: Test A postemergence, galium
Source text: as §1, §2

kochia (Kochia scoparia) [15] = assay: Test A preemergence, kochia
Source text: as §1, §2

[16] = 125 g ai/ha, visual injury, approximately 10 days
[17] = 500 g ai/ha, visual injury, approximately 10 days

Structure (SMILES) | Plant response rating, Barnyardgrass ([1]; 31 g ai/ha) | Plant response rating, Barnyardgrass [1, 16] | Plant response rating, Ryegrass, Italian ([2]; 31 g ai/ha) | Plant response rating, Ryegrass, Italian ([2]; 125 g ai/ha) | Plant response rating, Ragweed ([3]; 31 g ai/ha) | Plant response rating, Ragweed [3, 16] | Plant response rating, Blackgrass ([4]; 31 g ai/ha) | Plant response rating, Blackgrass [4, 16] | Plant response rating, Kochia (kochia (Kochia scoparia) [5]; [16]) | Plant response rating, Ragweed ([6]; 125 g ai/ha) | Plant response rating, Ryegrass, Italian [7, 16] | Plant response rating, Foxtail, Giant [8, 16] | Plant response rating, Foxtail, Giant ([9]; 125 g ai/ha) | Plant response rating, Pigweed ([10]; 125 g ai/ha) | Plant response rating, Wheat [11, 16] | Plant response rating, Corn (corn (Zea mays); [16]) | Plant response rating, Pigweed [12, 16] | Plant response rating, Barnyardgrass ([13]; 125 g ai/ha) | Plant response rating, Galium [14, 16] | Plant response rating, Kochia (kochia (Kochia scoparia) [15]; 125 g ai/ha) | other results
O=C1NCC(c2cccc(Oc3ncc(F)cc3F)c2)C1C(=O)Nc1cccc(F)c1F (single isomer, unassigned) [Compound 71] | 30 | 70 | 0 | 0 | 0 | 30 | 0 | 0 | 20 | 0 | 0 | 70 | 90 | 80 | 0 | 20 | 50 | 70 | 50 | 30 | Plant response rating, Kochia (kochia (Kochia scoparia) [5]; 31 g ai/ha): 0; Plant response rating, Ragweed ([6]; 31 g ai/ha): 0; Plant response rating, Ryegrass, Italian ([7]; 31 g ai/ha): 0; Plant response rating, Foxtail, Giant ([8]; 31 g ai/ha): 20; Plant response rating, Foxtail, Giant ([9]; 31 g ai/ha): 70; Plant response rating, Pigweed ([10]; 31 g ai/ha): 20; Plant response rating, Wheat ([11]; 31 g ai/ha): 0; Plant response rating, Corn (corn (Zea mays); 31 g ai/ha): 0; Plant response rating, Pigweed ([12]; 31 g ai/ha): 0; Plant response rating, Barnyardgrass ([13]; 31 g ai/ha): 0; Plant response rating, Galium ([14]; 31 g ai/ha): 30; Plant response rating, Kochia (kochia (Kochia scoparia) [15]; 31 g ai/ha): 0
CN1CC(c2cccc(Oc3ncc(F)cc3F)c2)C(C(=O)Nc2ccccc2F)C1=O (single isomer, unassigned) [Compound 72] | 60 | 90 | 0 | 50 | 0 | 30 | 20 | 60 | 20 | 0 | 50 | 90 | 90 | 0 | 20 | 20 | 30 | 90 | 60 | 0 | Plant response rating, Kochia (kochia (Kochia scoparia) [5]; 31 g ai/ha): 0; Plant response rating, Ragweed ([6]; 31 g ai/ha): 0; Plant response rating, Ryegrass, Italian ([7]; 31 g ai/ha): 20; Plant response rating, Foxtail, Giant ([8]; 31 g ai/ha): 80; Plant response rating, Foxtail, Giant ([9]; 31 g ai/ha): 90; Plant response rating, Pigweed ([10]; 31 g ai/ha): 0; Plant response rating, Wheat ([11]; 31 g ai/ha): 0; Plant response rating, Corn (corn (Zea mays); 31 g ai/ha): 0; Plant response rating, Pigweed ([12]; 31 g ai/ha): 0; Plant response rating, Barnyardgrass ([13]; 31 g ai/ha): 90; Plant response rating, Galium ([14]; 31 g ai/ha): 40; Plant response rating, Kochia (kochia (Kochia scoparia) [15]; 31 g ai/ha): 0
CN1CC(c2cccc(Oc3ncc(F)cc3F)c2)C(C(=O)Nc2cccc(F)c2F)C1=O (single isomer, unassigned) [Compound 73] | 60 | 70 | 0 | 40 | 0 | 30 | 0 | 40 | 20 | 0 | 40 | 90 | 90 | 0 | 20 | 20 | 60 | 90 | 60 | 20 | Plant response rating, Kochia (kochia (Kochia scoparia) [5]; 31 g ai/ha): 0; Plant response rating, Ragweed ([6]; 31 g ai/ha): 0; Plant response rating, Ryegrass, Italian ([7]; 31 g ai/ha): 0; Plant response rating, Foxtail, Giant ([8]; 31 g ai/ha): 60; Plant response rating, Foxtail, Giant ([9]; 31 g ai/ha): 80; Plant response rating, Pigweed ([10]; 31 g ai/ha): 0; Plant response rating, Wheat ([11]; 31 g ai/ha): 20; Plant response rating, Corn (corn (Zea mays); 31 g ai/ha): 20; Plant response rating, Pigweed ([12]; 31 g ai/ha): 50; Plant response rating, Barnyardgrass ([13]; 31 g ai/ha): 50; Plant response rating, Galium ([14]; 31 g ai/ha): 50; Plant response rating, Kochia (kochia (Kochia scoparia) [15]; 31 g ai/ha): 0
CN1CC(c2cccc(Oc3ncc(F)cc3F)c2)C(C(=O)Nc2ccc(F)c(F)c2F)C1=O (single isomer, unassigned) [Compound 74] | 60 | 90 | 30 | 80 | 0 | 20 | 0 | 20 | 50 | 0 | 30 | 80 | 100 | 80 | 20 | 20 | 60 | 90 | 70 | 40 | Plant response rating, Kochia (kochia (Kochia scoparia) [5]; 31 g ai/ha): 20; Plant response rating, Ragweed ([6]; 31 g ai/ha): 0; Plant response rating, Ryegrass, Italian ([7]; 31 g ai/ha): 0; Plant response rating, Foxtail, Giant ([8]; 31 g ai/ha): 70; Plant response rating, Foxtail, Giant ([9]; 31 g ai/ha): 90; Plant response rating, Pigweed ([10]; 31 g ai/ha): 0; Plant response rating, Wheat ([11]; 31 g ai/ha): 0; Plant response rating, Corn (corn (Zea mays); 31 g ai/ha): 0; Plant response rating, Pigweed ([12]; 31 g ai/ha): 0; Plant response rating, Barnyardgrass ([13]; 31 g ai/ha): 70; Plant response rating, Galium ([14]; 31 g ai/ha): 40; Plant response rating, Kochia (kochia (Kochia scoparia) [15]; 31 g ai/ha): 0
O=C1NCC(c2cccc(OCC3CC3)c2)C1C(=O)Nc1ccc(F)cc1F (stereo not drawn) [Compound 3] |  | 10 |  | 0 |  | 0 |  | 0 | 0 | 0 | 0 | 20 | 60 | 0 | 0 | 0 | 0 | 40 | 20 | 0 | Plant response rating, Barnyardgrass [1, 17]: 60; Plant response rating, Ryegrass, Italian ([2]; 500 g ai/ha): 20; Plant response rating, Ragweed [3, 17]: 0; Plant response rating, Blackgrass [4, 17]: 30; Plant response rating, Kochia (kochia (Kochia scoparia) [5]; [17]): 40; Plant response rating, Ragweed ([6]; 500 g ai/ha): 0; Plant response rating, Ryegrass, Italian [7, 17]: 30; Plant response rating, Foxtail, Giant [8, 17]: 70; Plant response rating, Foxtail, Giant ([9]; 500 g ai/ha): 80; Plant response rating, Pigweed ([10]; 500 g ai/ha): 0; Plant response rating, Wheat [11, 17]: 20; Plant response rating, Corn (corn (Zea mays); [17]): 20; Plant response rating, Pigweed [12, 17]: 0; Plant response rating, Barnyardgrass ([13]; 500 g ai/ha): 70; Plant response rating, Galium [14, 17]: 40; Plant response rating, Kochia (kochia (Kochia scoparia) [15]; 500 g ai/ha): 20
CC1(COc2cccc(C3CNC(=O)C3C(=O)Nc3cccc(F)c3F)c2)COC1 (stereo not drawn) [Compound 13] |  | 0 |  | 0 |  | 0 |  | 0 | 0 | 0 | 0 | 40 | 80 | 0 | 0 | 0 | 0 | 0 | 0 | 0 | Plant response rating, Barnyardgrass [1, 17]: 60; Plant response rating, Ryegrass, Italian ([2]; 500 g ai/ha): 0; Plant response rating, Ragweed [3, 17]: 0; Plant response rating, Blackgrass [4, 17]: 20; Plant response rating, Kochia (kochia (Kochia scoparia) [5]; [17]): 20; Plant response rating, Ragweed ([6]; 500 g ai/ha): 0; Plant response rating, Ryegrass, Italian [7, 17]: 30; Plant response rating, Foxtail, Giant [8, 17]: 70; Plant response rating, Foxtail, Giant ([9]; 500 g ai/ha): 90; Plant response rating, Pigweed ([10]; 500 g ai/ha): 0; Plant response rating, Wheat [11, 17]: 0; Plant response rating, Corn (corn (Zea mays); [17]): 0; Plant response rating, Pigweed [12, 17]: 0; Plant response rating, Barnyardgrass ([13]; 500 g ai/ha): 80; Plant response rating, Galium [14, 17]: 40; Plant response rating, Kochia (kochia (Kochia scoparia) [15]; 500 g ai/ha): 0
